In one assay the target is PI3Kα (Homo sapiens, UniProt P42336). Briefly: PI3K kinase activity inhibition assay. It is filed as biochemical. The following applies: Kinase-Glo Plus ATP detection, read-out: IC50 against PI3K. Put shortly: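 PI3Kα (50 nM solution) was reacted with 30 μM ATP and 45 μM PIP2 solutions, each in HEPES pH 7.4 with MgCl2 and DTT, for 2 h at room temperature. Remaining ATP was measured by Kinase-Glo Plus luminescence, and inhibition was derived from ATP consumed. IC50 was taken from curve fitting of the serial dilutions.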
A general note: Kinase-Glo measures the ATP left after a reaction by luminescence.

The subject of assay [1] is S6 (serine 235 and 236) phosphorylation in AN3CA tumor. The experiment in a line: S6 phosphorylation inhibition assay in xenograft. It is filed as in vivo, female nude mouse. To be noted: Mus musculus, AN3-CA, oral, 6 hr after dosing. On the procedure:
(§1) A tumor section was prepared from a human endometrial cancer cell strain AN3CA tumor mass formed in a female nude mouse as subcutaneously transplanted tumor and a xenograft model was prepared by subcutaneously transplanting the tumor to a female nude mouse. The test compound at a predetermined concentration was orally administered. After a predetermined time, the anesthetized mouse was exsanguinated to death, and a tumor mass was isolated. The tumor mass was crushed using a lysis buffer containing inhibitors of proteases and dephosphorylating enzymes (Cell Signaling Technology, Inc.) and the supernatant was separated by centrifugation to obtain a tumor extract. The protein content of the tumor extract was measured using DC Protein Assay Kit (Bio-Rad Laboratories, Inc.) and phosphorylation conditions of Akt (threonine 308) and S6 (serine 235 and 236) were analyzed by a usual technique of western blotting using tumor extracts containing the same amount of protein. The primary antibody and the secondary antibody used for detecting each molecule were rabbit anti-phospho-Akt(T308) antibody and HRP-labeled goat anti-rabbit IgG antibody or mouse anti-phospho-S6(S235/236) antibody and HRP-labeled sheep anti-mouse IgG antibody.
(§2) The signal intensity detected using an image analyzer Typhoon 9400 (GE Healthcare) was quantified, and the phosphorylation inhibition rate (%) was calculated by the following formula. Phosphorylation inhibitory activity (%) of Akt and S6 after treatment with test compound=100−100×(B/A) A: Signal intensity derived from phosphorylated protein in tumor mass isolated from mouse untreated with test compound B: Signal intensity derived from phosphorylated protein in tumor mass isolated from mouse treated with test compound

For assay [2], the system named is Akt (threonine 308) phosphorylation in AN3CA tumor. The experiment in a line: Akt phosphorylation inhibition assay in xenograft. It is filed as in vivo, female nude mouse. The following applies: Mus musculus, AN3-CA, oral, 6 hr after dosing. On the procedure:
as §1, §2

PI3Kα, sequence (P42336 whole entry, species assumed): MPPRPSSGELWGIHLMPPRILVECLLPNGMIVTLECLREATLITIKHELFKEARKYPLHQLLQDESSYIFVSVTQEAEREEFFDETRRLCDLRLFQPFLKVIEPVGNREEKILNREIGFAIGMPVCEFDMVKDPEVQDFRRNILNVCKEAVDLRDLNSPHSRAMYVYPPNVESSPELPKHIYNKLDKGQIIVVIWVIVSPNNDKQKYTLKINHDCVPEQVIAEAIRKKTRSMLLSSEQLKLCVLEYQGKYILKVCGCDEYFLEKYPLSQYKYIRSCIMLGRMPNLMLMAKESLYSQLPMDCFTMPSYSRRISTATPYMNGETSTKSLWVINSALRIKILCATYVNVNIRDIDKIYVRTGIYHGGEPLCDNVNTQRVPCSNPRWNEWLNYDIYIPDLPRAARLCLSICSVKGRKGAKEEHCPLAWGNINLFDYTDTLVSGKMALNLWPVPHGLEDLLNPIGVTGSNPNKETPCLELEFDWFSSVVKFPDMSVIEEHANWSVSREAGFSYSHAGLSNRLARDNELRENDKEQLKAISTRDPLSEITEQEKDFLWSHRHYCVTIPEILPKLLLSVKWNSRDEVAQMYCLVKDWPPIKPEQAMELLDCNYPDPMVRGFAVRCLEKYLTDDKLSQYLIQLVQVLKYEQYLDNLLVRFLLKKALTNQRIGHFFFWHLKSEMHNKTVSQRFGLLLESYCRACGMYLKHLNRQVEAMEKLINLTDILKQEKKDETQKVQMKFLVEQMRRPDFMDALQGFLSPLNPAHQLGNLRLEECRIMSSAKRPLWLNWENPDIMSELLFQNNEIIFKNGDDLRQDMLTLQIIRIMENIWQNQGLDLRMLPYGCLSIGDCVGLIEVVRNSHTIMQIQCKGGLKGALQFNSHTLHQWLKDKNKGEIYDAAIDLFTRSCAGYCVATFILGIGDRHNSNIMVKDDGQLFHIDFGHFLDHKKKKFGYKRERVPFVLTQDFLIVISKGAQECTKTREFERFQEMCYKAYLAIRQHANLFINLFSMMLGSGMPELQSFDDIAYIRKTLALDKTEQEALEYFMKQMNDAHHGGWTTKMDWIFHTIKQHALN
PI3Kα, sequence (P27986 whole entry partner, species assumed): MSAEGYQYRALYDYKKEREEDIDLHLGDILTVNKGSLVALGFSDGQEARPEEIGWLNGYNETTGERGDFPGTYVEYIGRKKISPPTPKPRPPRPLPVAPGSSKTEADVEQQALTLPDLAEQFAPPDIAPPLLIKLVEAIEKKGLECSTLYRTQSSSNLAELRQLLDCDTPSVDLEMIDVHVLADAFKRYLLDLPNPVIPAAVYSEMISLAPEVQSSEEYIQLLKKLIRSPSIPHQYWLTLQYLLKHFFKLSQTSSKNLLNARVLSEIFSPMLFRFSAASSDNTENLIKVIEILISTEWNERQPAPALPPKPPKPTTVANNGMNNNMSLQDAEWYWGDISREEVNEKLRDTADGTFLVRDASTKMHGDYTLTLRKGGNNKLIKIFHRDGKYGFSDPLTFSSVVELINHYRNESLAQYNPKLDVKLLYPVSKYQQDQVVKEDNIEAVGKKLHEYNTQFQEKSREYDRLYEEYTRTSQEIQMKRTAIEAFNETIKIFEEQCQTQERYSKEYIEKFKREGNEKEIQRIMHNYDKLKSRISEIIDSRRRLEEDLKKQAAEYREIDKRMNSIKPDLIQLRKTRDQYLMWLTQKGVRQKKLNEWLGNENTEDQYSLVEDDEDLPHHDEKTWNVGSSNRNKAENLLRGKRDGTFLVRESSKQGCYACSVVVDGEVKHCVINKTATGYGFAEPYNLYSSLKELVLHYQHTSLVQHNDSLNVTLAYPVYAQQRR

Broadly, the IC50 is the concentration at which inhibition is half-maximal. As for `CC(C)Cn1c(N2CCN(S(C)(=O)=O)CC2)nc2c(N3CCOCC3)nc(-c3cnc(N)nc3)nc21` [Example 1, 5-{9-Isobutyl-8-[4-(methylsulfonyl)piperazin-1-yl]-6-morpholin-4-yl-9H-purin-2-yl}pyrimidin-2-amine], the IC50 on PI3Kα lay within 10 to 20 nM.
As to `CC(=O)N1CCN(c2nc3c(N4CCOCC4)nc(-c4cnc(N)nc4)nc3n2CC(C)C)CC1` [Example 2, 5-[8-(4-Acetylpiperazin-1-yl)-9-isobutyl-6-morpholin-4-yl-9H-purin-2-yl]pyrimidin-2-amine], the IC50 at PI3Kα lay in the range of 10 to 20 nM.
For orientation: inhibition means the relative decrease from the control value, in per cent. Read a high inhibition as a strong effect. For `CS(=O)(=O)N1CCN(c2nc3c(N4CCOCC4)nc(-c4cnc(N)nc4)nc3n2CC2CC2)CC1` [Example 3, 5-{9-(Cyclopropylmethyl)-8-[4-(methylsulfonyl)piperazin-1-yl]-6-morpholin-4-yl-9H-purin-2-yl}pyrimidin-2-amine], the inhibition at 10 mg/kg in assay [1] was above 90%; in assay [2], above 60%. Also, the IC50 at PI3Kα was below 10 nM.
Compound `Cc1nc(N)ncc1-c1nc(N2CCOCC2)c2nc(N3CCN(S(C)(=O)=O)CC3)n(CC3CC3)c2n1` [Example 6, 5-{9-(Cyclopropylmethyl)-8-[4-(methylsulfonyl)piperazin-1-yl]-6-morpholin-4-yl-9H-purin-2-yl}-4-methylpyrimidin-2-amine] returned an inhibition at 10 mg/kg in assay [2] above 60%. Moreover, the IC50 at PI3Kα is below 10 nM.
Consider `CS(=O)(=O)N1CCN(c2nc3c(N4CCOCC4)nc(-c4cnc(N)nc4)nc3n2CC(F)(F)F)CC1` [Example 8, 5-{8-[4-(Methylsulfonyl)piperazin-1-yl]-6-morpholin-4-yl-9-(2,2,2-trifluoroethyl)-9H-purin-2-yl}pyrimidin-2-amine], for which the inhibition at 10 mg/kg in assay [1] was above 90%; in assay [2] it was above 60%. Further, the IC50 on PI3Kα was below 10 nM.
As to `CC(=O)N1CCN(c2nc3c(N4CCOCC4)nc(-c4cnc(N)nc4)nc3n2CC2CC2)CC1` [Example 10, 5-[8-(4-Acetylpiperazin-1-yl)-9-(cyclopropylmethyl)-6-morpholin-4-yl-9H-purin-2-yl]pyrimidin-2-amine], the IC50 at PI3Kα was below 10 nM.
With `CNc1ncc(-c2nc(N3CCOCC3)c3nc(N4CCN(S(C)(=O)=O)CC4)n(CC(F)(F)F)c3n2)cn1` [Example 11, N-Methyl-5-{8-[4-(methylsulfonyl)piperazin-1-yl]-6-morpholin-4-yl-9-(2,2,2-trifluoroethyl)-9H-purin-2-yl}pyrimidin-2-amine], the IC50 on PI3Kα was in the range of 10 to 20 nM.
On to `C[C@@H]1CN(c2nc3c(N4CCOCC4)nc(-c4cnc(N)nc4)nc3n2CC(F)(F)F)C[C@H](C)N1` [Example 14, 5-[8-(cis-3,5-Dimethylpiperazin-1-yl)-6-morpholin-4-yl-9-(2,2,2-trifluoroethyl)-9H-purin-2-yl]pyrimidin-2-amine], for which, on PI3Kα, the half-maximal inhibitory concentration (IC50) was below 10 nM.
In turn, `CC(C)Cn1c(N2CCN(S(C)(=O)=O)[C@@H](C)C2)nc2c(N3CCOCC3)nc(-c3cnc(N)nc3)nc21` [Example 53, 5-{9-Isobutyl-8-[(3S)-3-methyl-4-(methylsulfonyl)piperazin-1-yl]-6-morpholin-4-yl-9H-purin-2-yl}pyrimidin-2-amine] gave an inhibition at 10 mg/kg in assay [2] of 30 to 60%. In addition, the IC50 at PI3Kα fell in the range of 10 to 20 nM.
As to `CC(C)Cn1c(N2CCN(S(C)(=O)=O)[C@H](C)C2)nc2c(N3CCOCC3)nc(-c3cnc(N)nc3)nc21` [Example 54, 5-{9-Isobutyl-8-[(3R)-3-methyl-4-(methylsulfonyl)piperazin-1-yl]-6-morpholin-4-yl-9H-purin-2-yl}pyrimidin-2-amine], in assay [2], the inhibition at 10 mg/kg is 30 to 60%. Further, on PI3Kα, the half-inhibitory concentration (IC50) is 10 to 20 nM.
`CC(C)Cn1c(N2CCN(C(=O)CN(C)C)CC2)nc2c(N3CCOCC3)nc(-c3cnc(N)nc3)nc21` [Example 55, 5-(8-{4-[(Dimethylamino)acetyl]piperazin-1-yl}-9-isobutyl-6-morpholin-4-yl-9H-purin-2-yl)pyrimidin-2-amine]: the IC50 at PI3Kα was below 10 nM.
As to `CS(=O)(=O)C1CCN(c2nc3c(N4CCOCC4)nc(-c4cnc(N)nc4)nc3n2CC(F)(F)F)CC1` [Example 57, 5-{8-[4-(Methylsulfonyl)piperidin-1-yl]-6-morpholin-4-yl-9-(2,2,2-trifluoroethyl)-9H-purin-2-yl}pyrimidin-2-amine], the inhibition at 10 mg/kg in assay [1] is above 90%; in assay [2] it was 30 to 60%. Also, the IC50 on PI3Kα was below 10 nM.
The like results for `CC(=O)N1CCN(c2nc3c(N4CCOCC4)nc(-c4cnc(N)nc4)nc3n2CC(F)(F)F)C[C@H]1C` [Example 60, 5-{8-[(3R)-4-Acetyl-3-methylpiperazin-1-yl]-6-morpholin-4-yl-9-(2,2,2-trifluoroethyl)-9H-purin-2-yl}pyrimidin-2-amine] were, in that order, above 90%, above 60% and below 10 nM.
Consider `C[C@@H]1CN(c2nc3c(N4CCOCC4)nc(-c4cnc(N)nc4)nc3n2CC(F)(F)F)CCN1S(C)(=O)=O` [Example 61, 5-{8-[(3R)-3-Methyl-4-(methylsulfonyl)piperazin-1-yl]-6-morpholin-4-yl-9-(2,2,2-trifluoroethyl)-9H-purin-2-yl}pyrimidin-2-amine], for which the inhibition at 10 mg/kg was above 90% in assay [1] and above 60% in assay [2]. In addition, the IC50 at PI3Kα was below 10 nM.
Regarding `CNc1ncc(-c2nc(N3CCOCC3)c3nc(N4CCN(CC(=O)N(C)C)[C@H](C)C4)n(CC(F)(F)F)c3n2)cn1` [Example 87, N,N-Dimethyl-2-[(2R)-2-methyl-4-{2-[2-(methylamino)pyrimidin-5-yl]-6-morpholin-4-yl-9-(2,2,2-trifluoroethyl)-9H-purin-8-yl}piperazin-1-yl]acetamide], the inhibition at 10 mg/kg in assay [2] is above 60%. Moreover, the IC50 at PI3Kα was below 10 nM.
`CC(=O)N1CCN(c2nc3c(N4CCOCC4)nc(-c4cnc(N)nc4)nc3n2CC(C)C)C[C@H]1C` [Example 99, 5-{8-[(3R)-4-Acetyl-3-methylpiperazin-1-yl]-9-isobutyl-6-morpholin-4-yl-9H-purin-2-yl}pyrimidin-2-amine] yielded an inhibition at 10 mg/kg in assay [2] of 30 to 60%. The IC50 at PI3Kα lay within 10 to 20 nM.
For `C[C@H]1COCCN1c1nc(-c2cnc(N)nc2)nc2c1nc(N1CCN(S(C)(=O)=O)CC1)n2CC(F)(F)F` [Example 127, 5-{6-[(3S)-3-Methylmorpholin-4-yl]-8-[4-(methylsulfonyl)piperazin-1-yl]-9-(2,2,2-trifluoroethyl)-9H-purin-2-yl}pyrimidin-2-amine], the IC50 at PI3Kα is below 10 nM.
`CC(=O)N1CCN(c2nc3c(N4CCOC[C@@H]4C)nc(-c4cnc(N)nc4C)nc3n2CC2CC2)CC1` [Example 128, 5-{8-(4-acetylpiperazin-1-yl)-9-(cyclopropylmethyl)-6-[(3S)-3-methylmorpholin-4-yl]-9H-purin-2-yl}-4-methylpyrimidin-2-amine] gave an inhibition at 10 mg/kg in assay [2] of 30 to 60%. Also, the IC50 at PI3Kα is 10 to 20 nM.
Turning to `CC(=O)N1CCN(c2nc3c(N4CCOC[C@@H]4C)nc(-c4cnc(N)nc4)nc3n2CC(C)C)CC1` [Example 129, 5-{8-(4-Acetylpiperazin-1-yl)-9-isobutyl-6-[(3S)-3-methylmorpholin-4-yl]-9H-purin-2-yl}pyrimidin-2-amine], in assay [1], the inhibition at 10 mg/kg was in the range of 70 to 90%. The IC50 at PI3Kα lay within 10 to 20 nM.

(Values after patent publication US8309546B2, “Morpholinopurine derivatives” (Daiichi Sankyo Company, Limited, priority 2008, dated 2012).)
